# Source: patent US10894035B2, “Use of indole compounds to stimulate the immune system” (priority 2015, dated 2021)
# Key:
# [1] = biological target: sPLA2G1B (Homo sapiens, UniProt P04054); test: E. coli membrane sPLA2 activity assay ([3H]oleic acid release); type: biochemical
# Protocol: The activity of compounds of formula A towards sPLA2G1B can be tested and verified using the E. coli membrane assay described below:
# The assay is based on the ability of E. coli membranes to incorporate exogenously added fatty acids such as oleic acid (OA). The use of radiolabelled OA allows to follow the incorporation of this fatty acid into membrane phospholipids of E. Coli and its release upon PLA2-mediated hydrolysis of these membranes. Preincubation of the samples, before the assay, with a specific inhibitor or a neutralizing specific antibody directed against the given sPLA2 can indicate which sPLA2 type is detected.
# An overnight culture of E. coli was diluted 1:20 in Luria Broth (LB) medium and incubated at 37° C. for 5 h with vigorous shaking in the presence of 1 mCi/ml [3H]OA (NET 289, NEN, 5 mCi/ml). […]
# The reaction was carried out in a 37° C. water bath for 30 min and stopped with stop buffer containing 0.1 M EDTA and 0.2% free-fatty acids BSA. Then the tubes were centrifuged to spin down E. Coli membranes and aliquotes of supernatants were counted to monitor the [3H]OA released from these membranes. […]
# The sPLA2 activity (A) is calculated as follows: A=A1−A2/B×100. […]
# A is expressed as the % hydrolysis of the total radioactivity incorporated in the E. coli membranes.
# [2] = biological target: sPLA2GIB (Homo sapiens, UniProt P04054); test: sPLA2 specificity panel (Table 1); type: biochemical; conditions: panel of secreted PLA2, result in words
# [3] = biological target: T1, sPLA2GIID (Homo sapiens, UniProt Q9UNK4); test: sPLA2 specificity panel (Table 1); type: biochemical; conditions: panel of secreted PLA2, result in words
# T1 sequence (Q9UNK4 21-145): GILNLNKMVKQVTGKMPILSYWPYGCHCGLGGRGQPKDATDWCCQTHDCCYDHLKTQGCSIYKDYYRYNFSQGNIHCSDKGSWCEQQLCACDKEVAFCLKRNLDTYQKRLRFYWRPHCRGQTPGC
# [4] = biological target: T2, sPLA2GIIE (Homo sapiens, UniProt Q9NZK7); test: sPLA2 specificity panel (Table 1); type: biochemical; conditions: panel of secreted PLA2, result in words
# T2 sequence (Q9NZK7 20-142): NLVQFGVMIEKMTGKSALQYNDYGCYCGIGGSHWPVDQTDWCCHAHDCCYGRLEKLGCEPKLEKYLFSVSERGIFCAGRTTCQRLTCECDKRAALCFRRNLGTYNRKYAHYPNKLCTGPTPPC
# [5] = biological target: T3, sPLA2GV (Homo sapiens, UniProt P39877); test: sPLA2 specificity panel (Table 1); type: biochemical; conditions: panel of secreted PLA2, result in words
# T3 sequence (P39877 21-138): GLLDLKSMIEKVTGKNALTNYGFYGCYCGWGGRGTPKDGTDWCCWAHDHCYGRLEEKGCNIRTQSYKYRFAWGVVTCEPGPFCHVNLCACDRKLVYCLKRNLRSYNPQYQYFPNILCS
# Source text: IC50 values for a panel of secreted Phospholipase A2 (sPLA2) are shown.
# [6] = biological target: T4, sPLA2GIII (Homo sapiens, UniProt Q9NZ20); test: sPLA2 specificity panel (Table 1); type: biochemical; conditions: panel of secreted PLA2, result in words
# T4 sequence (Q9NZ20 20-509): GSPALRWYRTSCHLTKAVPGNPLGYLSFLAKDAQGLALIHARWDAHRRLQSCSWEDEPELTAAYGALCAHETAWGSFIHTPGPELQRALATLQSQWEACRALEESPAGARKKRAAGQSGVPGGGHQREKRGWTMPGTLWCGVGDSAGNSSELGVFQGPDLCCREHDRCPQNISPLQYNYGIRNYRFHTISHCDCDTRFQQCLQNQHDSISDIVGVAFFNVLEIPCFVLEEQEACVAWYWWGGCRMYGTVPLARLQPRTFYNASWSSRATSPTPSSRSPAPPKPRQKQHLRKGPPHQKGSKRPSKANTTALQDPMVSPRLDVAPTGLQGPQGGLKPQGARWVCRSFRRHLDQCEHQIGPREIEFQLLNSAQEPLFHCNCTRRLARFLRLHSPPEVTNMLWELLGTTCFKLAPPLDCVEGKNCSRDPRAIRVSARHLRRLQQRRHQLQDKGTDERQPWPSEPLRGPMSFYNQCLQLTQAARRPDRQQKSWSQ
# [7] = biological target: T5, sPLA2GXIIA (Homo sapiens, UniProt Q9BZM1); test: sPLA2 specificity panel (Table 1); type: biochemical; conditions: panel of secreted PLA2, result in words
# T5 sequence (Q9BZM1 23-189): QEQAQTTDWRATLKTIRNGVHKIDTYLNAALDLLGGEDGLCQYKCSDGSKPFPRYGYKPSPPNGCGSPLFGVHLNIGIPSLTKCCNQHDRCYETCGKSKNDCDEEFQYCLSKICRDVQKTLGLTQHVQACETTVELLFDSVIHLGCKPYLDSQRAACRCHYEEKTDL
# [8] = biological target: T6, Recombinant PLA2G1B (Homo sapiens, UniProt P04054); test: Bioassay of IL-7-induced pSTAT5 nuclear translocation in CD4 T cells exposed to recombinant PLA2G1B; type: cell-based
# T6 construct: made in house; host or cells: E. coli (inclusion bodies, urea-solubilized, renatured, HPLC-purified)
# Protocol: sPLA2G1B was produced in E. Coli. Inclusion bodies were solubilized in urea and afterwards renatured. sPLA2G1B was further purified by HPLC. Homogeneity of the preparations was verified by MassSpectrometry (Malditoff). The specific activity of the enzyme was always measured and compared to standard preparations.
# (§1) Inhibition of IL-7-induced phosphorylated STAT5 nuclear translocation (NTpSTAT) was measured as follows: VP plasma (5 or 10%) was first incubated with purified HD CD4 T cells (20 min) before stimulation by IL-7 (2 nM, 15 min.). Cells were then plated on polylysine coated glass slides before fixation by PFA (1.5%) and permeabilization by methanol (90% at −20° C.). pSTAT5 was then stained by rabbit anti-STAT5 and labeled with goat anti-rabbit-Atto642. The cells were analyzed by pulsed STED microscopy and the number of nuclei expressing pSTAT5 were counted.
# The experiment was repeated twice. From the experimental data we derived the corresponding theoretical curve that gives the IC50.
# [9] = biological target: T7, sPLA2G1B contained in plasma of viremic patients (Homo sapiens, UniProt P04054); test: Bioassay of IL-7-induced pSTAT5 nuclear translocation in healthy-donor CD4 T cells exposed to plasma/sera of viremic HIV-infected patients; type: cell-based; conditions: for reversion of inhibition of pSTAT5 nuclear translocation: 50 μM compound; for reversal of plasma/sera-induced inhibition of IL-7-induced NT pSTAT5: 50 microM compound
# T7 construct: CD4 lymphocytes purified from healthy donors were exposed to sera from viremic HIV-infected patients at 3% dilution; from tissue; host or cells: plasma/sera of viremic HIV-infected patients, applied to CD4 T cells of healthy donors
# Protocol: Five sera were tested and the results are given as the median +/−SD.
# Viremic patients (VP) included in the study had been HIV-positive for more than one year. […] All blood samples from VP were drawn at Hôpital Bicêtre or Centre Hospitalier de Gonesse.
# as §1
# We have already shown that sPLA2G1B contained in plasma of viremic patients through induction of aMMD induces a blockade of IL-7-induced nuclear translocation of phospho STAT5 (NT pSTAT5).
# The effects of plasma from various HIV viremic patients (at least 5) were first titrated on the inhibition of IL-7-induced NTpSTAT5. The inhibition is measurable at 1% dilution of the plasma and the effect is maximum at 10% of the plasma. Consequently, in the experiments we used the different plasma at 3% dilution which gives between 30 to 70% of the maximum inhibition. […] The inhibition obtained with the recombinant enzyme reaches a plateau corresponding to a maximum inhibition of around 80%. By contrast, the plateau obtained when the plasma is used is around 90% inhibition, or more (compare data of FIGS. 1 and 2 with data FIG. 3).
# In a further study, the plasma from 5 additional HIV-infected patients was tested. […] 100% inhibition of nuclear translocation of pSTAT5 is observed (see FIG. 4).
# [10] = recombinant PLA2G1B 75 nanoM, pre-exposed 30 mn to compound, FIG. 1
# T7 sequence (P04054 23-148): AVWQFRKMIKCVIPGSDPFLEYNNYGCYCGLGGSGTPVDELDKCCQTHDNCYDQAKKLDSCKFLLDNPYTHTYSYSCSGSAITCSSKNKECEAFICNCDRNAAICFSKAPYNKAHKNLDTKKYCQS
# T6 sequence (P04054 23-148): as above
# Sequence of sPLA2GIB (P04054 23-148): as above
# Sequence of sPLA2G1B (P04054 23-148): as above
smiles,measurement,setting,value
CCc1c(C(=O)C(N)=O)c2c(OCC(=O)O)cccc2n1Cc1ccccc1 [Compound B],inhibitory effect on sPLA2G1B activity,[1],particularly strong inhibitory effect
same,IC50 sPLA2GIB,[2],significant IC50
same,IC50 sPLA2GIID,[3],significant IC50
same,IC50 sPLA2GIIE,[4],significant IC50
same,IC50 sPLA2GV,[5],significant IC50
same,recognition/binding/activity towards sPLA2GIII (group III PLA2),[6],does not recognize or bind
same,recognition/binding/activity towards sPLA2GIII (group III PLA2),[6]; listed as compound B,no activity
same,recognition/binding of sPLA2GXIIA,[7],does not recognize or bind
same,IC50,[8],6.01 µM
same,concentration at which inhibitory effects are maximum,[8]; [10],8 µM
same,concentration at which inhibitory effects begin,[8]; [10],5 µM
same,"plateau, maximum inhibition",[8]; recombinant enzyme in serum free buffer,around 80%
same,reversion of inhibition of pSTAT5 nuclear translocation,"[9]; 1% plasma, FIG. 4",the reversion is complete
same,reversion of inhibition of pSTAT5 nuclear translocation,"[9]; 3% plasma, FIG. 4",about 90%
same,reversal of plasma/sera-induced inhibition of IL-7-induced NT pSTAT5,"[9]; sera at 1% or 3% dilution, 5 additional patients, FIG. 4",completely reverse this inhibition
same,reversal of plasma/sera-induced inhibition of IL-7-induced NT pSTAT5,"[9]; sera at 1% or 3% dilution, 5 additional patients, FIG. 4, listed as compound B",totally reversed this inhibition
same,reversal of plasma/sera-induced inhibition of IL-7-induced NT pSTAT5,"[9]; sera at 3% dilution, five sera, FIG. 3",revert the inhibitory activity of the plasma
same,reversal of plasma/sera-induced inhibition of IL-7-induced NT pSTAT5,"[9]; sera at 3% dilution, five sera, FIG. 3, listed as compound B",totally reversed this inhibition
same,plateau inhibition when plasma is used,[9]; plasma of viremic patients,≥ 90%
